Assay results from patent publication US20210290576A1, “STRUCTURALLY MODIFIED FATTY ACIDS FOR IMPROVING GLYCEMIC CONTROL AND TREATING INFLAMMATORY BOWEL DISEASE” (NORTHSEA THERAPEUTICS B.V., priority 2018, published 2021).
Entries after “also recorded” stand apart in the source; their conditions may differ.

How the values were obtained:
[1] = system: IL6, IL1b, S100A8, TNFα, Reg3g, IL17a mRNA; experiment: Colonic mRNA levels of proinflammatory cytokines and biomarkers in DSS-induced colitis mice (real-time PCR); format: in vivo, C56BL/6J mouse; conditions: 126 and 252 mg/kg per day; normalized to HPRT; vs untreated mice
Procedure: The C56BL/6J mouse is a strain susceptible to DSS-induced colitis. To evaluate the efficacy and dosage of Compound B in treatment of DSS-induced colitis, inflammation was induced in 30 9-week old C56BL/6J mice by adding 1.5% DSS to the drinking water for 7 days. The mice were fed a standard chow diet that consisted of 30 weight percent wheat. The mice were divided into three groups of 10, and for each day of DSS administration each group was administered via oral gavage either (1) 100 μL corn oil per day (Control), (2) 126 mg/kg Compound B (dissolved in 100 μL corn oil) per day (“Compound B—Low” or “Compound B—L”), or (3) 252 mg/kg Compound B (dissolved in 100 μL corn oil) per day (“Compound B—High” or “Compound B—H”). Following the 7-day period of DSS induction, mice were sacrificed and their intestinal tissue was used for histopathological and gene expression analysis.
To evaluate the effect of treatment with Compound B on the levels of proinflammatory cytokines and biomarkers, total RNA was extracted from small and large intestinal tissue samples (>100 mg). cDNA was synthesized by reverse transcription and analyzed by real-time PCR. Results were normalized to the level of the housekeeping gene hypoxanthine guanine phosphoribosyltransferase (HPRT). The relative mRNA expression of the tested gene relative to HPRT expression was calculated using the 2^−ΔΔCt method as described in Pickert et al., J. Exp. Med., 2009, 206:1465-1472. Interleukin 6 (IL6), IL1b, calgranulin-A (S100A8), and tumor necrosis factor α (TNFα) have been implicated as mediators of IBD, including both ulcerative colitis and Crohn's disease. IL6, IL1b, and calgranulin-A are prominently expressed in inflammatory macrophages. IL22-dependent regenerating islet-derived 3 gamma (Reg3g) is induced in response to inflammation in epithelial cells. IL17 is secreted by Th17 T helper cells and innate lymphoid cells type 3 (ILC3).

[2] = system: B6.V-Lepob/Jrj mice (ob/ob), T2DM rodent model; experiment: Glucose tolerance (0-120 mins) after 28-day treatment in ob/ob mice; format: in vivo; conditions: 28 days; for glucose tolerance: 2 g/kg oral glucose load
Procedure: This study was carried out to assess the effects of chronic treatment with Compound B or Compound A on glucose tolerance in a T2DM rodent model.
For assessing the effects of Compound B, B6.V-Lepob/Jrj mice (ob/ob) mice were administered Compound B at one of 2 doses, 125 and 250 mg/kg for 28 days. […] After the oral glucose load, plasma glucose was measured at multiple time points from and AUC (0-120 mins) for glucose was calculated.

active GLP-1 = experiment: Active GLP-1 during an oral glucose tolerance test (OGTT) and at 24 h in lean male SPD rats; format: in vivo, Sprague-Dawley (SPD) rats; conditions: in combination with DPP4 inhibitor (linagliptin); Compound A 74 mg/kg, Compound B 84 mg/kg, two oral doses
Procedure: Evaluation of the Acute Effects of Compound a and Compound B Upon Active GLP-1 wconcentrations during an oral glucose tolerance test (OGTT) and at 24 h in lean male SPD Rats
To establish the acute effects of oral administration of Compound A and Compound B upon active GLP-1 and insulin concentrations, lean (about 300 g) male Sprague-Dawley (SPD) rats were divided into groups (n=6-8) and fed 74 and 84 mg/kg body weight of Compound A or Compound B respectively, either with or without concurrent administration of a dipeptidyl peptidase 4 (DPP-4) inhibitor 60 minutes prior to an oral glucose tolerance test (OGTT) as outlined below. Parallel groups receiving either corn oil alone (corn oil+vehicle, n=10) or corn oil and a DPP-4 inhibitor (“DPP-4 i”) (corn oil+(DPP-4 i), n=10) were included as controls. The DPP-4 inhibitor was linagliptin.
A second oral dose of 74 and 84 mg/kg bodyweight of Compound A or Compound B respectively was administered at 240 minutes and ad lib feeding was initiated. A second dose of DPP-4 inhibitor was administered at 480 mins prior to lights out. Blood samples were collected at 24 h for measurement of active GLP-1 and insulin. All values are mean, figures depict mean values (SEM).

[3] = 250 mg/kg once daily oral gavage

## CC/C=C\C/C=C\C/C=C\C/C=C\C/C=C\CCCCSC(CC)(CC)C(=O)O [Compound B, 2-ethyl-2-((5Z,8Z,11 Z,14Z,17Z)-icosa-5,8,11,14,17-pentaenylthio)butanoic acid]
[1]
  relative colonic mRNA level of IL1b: reduced colonic expression; also recorded: dose-dependent decrease
  relative colonic mRNA level of IL6: reduced colonic expression; also recorded: dose-dependent decrease
  relative colonic mRNA level of IL17a: lack of change
  relative colonic mRNA level of Reg3g: reduced colonic expression; also recorded: dose-dependent decrease
  relative colonic mRNA level of S100A8: reduced colonic expression; also recorded: dose-dependent decrease
  relative colonic mRNA level of TNFα: reduced colonic expression; also recorded: dose-dependent decrease
[2]; 125 mg/kg once daily oral gavage
  glucose tolerance: improved glucose tolerance
[2]; [3]
  AUC (0-120 mins) glucose: potent and highly significant (p<0.001) reduction
  glucose tolerance: improved glucose tolerance
Active GLP-1
  active GLP-1 concentrations at 24 h versus corn oil+vehicle: significantly (p<0.01) increased
